Laboratory results reported in paper PMC5707064, “Proteoglycan-targeting applied to hypoxia-activated prodrug therapy in chondrosarcoma: first proof-of-concept” (Oncotarget, 2017).
Where two headings read alike, the source gives them in different places.

What was measured:
[1] = tested on: aggrecan from bovine articular cartilage; assay: Surface plasmon resonance (SPR) binding to immobilized aggrecan; details: for Binding to aggrecan (sensorgrams): analytes injected at 0.0625-1 mM, 600 seconds; for Kd: steady-state affinity analysis, ligand: immobilized aggrecan, triplicate, read-out: Dissociation constant (KD)
Description: SPR assay was carried out on a Biacore T200 instrument (GE Healthcare) with a CM4 sensor chip (GE Healthcare). To immobilize aggrecan from bovine articular cartilage (Sigma-Aldrich), the sensor chip was first activated using a 1:1 mixture of 0.2 M 1-ethyl-3-(3-dimethylaminopropyl)carbodiimide hydrochloride and 0.5 M N-hydroxysuccinimide (amine coupling kit, GE Healthcare) at a flow rate of 5 μL/min for 10 minutes. Aggrecan was then coated on the sensor chip at 400 μg/mL in running buffer HBS-P^+ 1X (0.01 M HEPES, 0.15 M NaCl, 0.05% v/v surfactant p20, pH 7.4) with 6 mM hexadecyltrimethylammoniumbromide (CTAB) at 5 μL/min to a level of ~500 response units. Unoccupied binding sites were blocked using 1 M ethanolamine (pH 8.5) (Amine coupling kit, GE Healthcare) at 5 μL/min during 10 minutes. The studied molecules (analytes) were diluted in running buffer HBS-P^+ 1X before application to the sensor chip at 30 μL/min. Regeneration of the sensor chips was achieved using 2 M NaCl solution during 150 seconds. Dissociation constants (KD) were determined using Biacore T200 Evaluation software with a “steady-state affinity analysis” after injection of five different concentrations of analytes.

[2] = tested on: HEMC-SS chondrosarcoma cells (monolayer); assay: In vitro proliferation assay (AlamarBlue), HEMC-SS monolayer culture; assay type: cell-based, human; details: for IC50: Homo sapiens; for HCR (hypoxic-cytotoxic ratio) Monolayer: normoxia vs hypoxia IC50
Description: Human HEMC-SS chondrosarcoma cell line was obtained from the European Collection of Authenticated Cell Cultures and cultured in DMEM/F12 medium (Life Technologies) supplemented with 10% fetal calf serum (Dutscher) and 4 μg/mL gentamicin.
(§1) After trypsinization, HEMC-SS cells were seeded in 96-well plates at a density of 20.10^3 cells in 150 μL of the corresponding culture medium and allowed to adhere overnight. For 3D cell culture, Day 10 spheroids were used. Increasing drug concentrations diluted in DMSO (maintaining final DMSO concentration at 0.5% (v/v)) were added. After plate incubations for 24 hours in normoxic (21% O2, 5% CO2, 37 °C) or hypoxic (N2, O2 < 0.3%, 37 °C) conditions, the culture media were removed and 2D and 3D cells were washed with PBS and left to grow for 48 hours in normoxic conditions. Viability of cells cultured in monolayer or spheroids was quantified by AlamarBlue assay. Cytotoxic activity was expressed as the drug concentration that inhibited cell growth by 50% (IC50). Experiments were performed in triplicates. Data are represented as means ± SD. Statistical significance was determined using one-way ANOVA followed by Tukey's post-hoc multiple comparisons test. Results were considered significant at p < 0.05.

[3] = tested on: HEMC-SS spheroids; assay: In vitro proliferation assay (AlamarBlue), HEMC-SS Day 10 spheroids; assay type: cell-based, human; details: for IC50: Homo sapiens, 24 hours exposure then 48 hours in normoxia; for HCR (hypoxic-cytotoxic ratio) Spheroids: normoxia vs hypoxia IC50
Description: To generate HEMC-SS spheroids, cells were harvested from culture flasks by trypsinization and seeded in 96-well non-adherent plates (Nunc) with 100 μL of 0.5% methylcellulose (Bio-Techne) diluted in the corresponding medium at a density of 1000 cells per well. Cultures were maintained in a 5% CO2 humidified environment at 37°C.
as §1

[4] = tested on: HEMC-SS xenograft model; assay: In vivo antitumor efficacy on HEMC-SS xenograft model; parameters: species or system SCID mice; details: for Antitumor effect (tumor volume vs controls): 6 i.v. injections at 4-day intervals, 8-QA and 8 47.0 μmol/kg, 10-QA 46.7 μmol/kg
Description: In vivo studies were carried out on 50 female Severe Combined ImmunoDeficiency (SCID) mice aged 4–5 weeks old (Janvier Labs). All animal studies were carried out in accordance with the directive 2010/63/EU after approval by the institutional review board (C2E2A, authorization #CE85-12).
To obtain in vivo tumors, 10^7 HEMC-SS cells in 100 μL of PBS were injected with 100 μL of Matrigel® (BD Biosiences) subcutaneously into the right flank of the mice.
The antitumor efficiency of 8-QA was first studied respectively to its non-QA equivalent (8) used as negative control for proteoglycan targeting. In a second independent study, we evaluated the antitumor activity of non-hypoxia activated derivative (10-QA) used as negative control of hypoxia activation, respectively to another control group. For both studies, at 21 days post-cell inoculation mice were randomized into three or two groups (10–12 animals per group). Treatment protocol consisted in 6 doses at 4-day intervals injected by i.v route: 8-QA (47.0 μmol/kg) and 10-QA (46.7 μmol/kg)were injected at 50% of Maximum Tolerated Dose (MTD) while non-targeted derivative 8 (47.0 μmol/kg) was injected at equimolar dose of 8-QA. All molecules were diluted in saline with 2% ethanol. Control animals received vehicle according to the same schedule.
Tumor volume (TV) was calculated using the following formula:
TV (mm^3) = [length x (width)^2]/2.
Tumor Growth Inhibition (TGI) was calculated as follows: TGI (%) = [1-(Tn/Cn)] × 100, where Tn is the tumor volume of the treated group at day n and Cn the tumor volume of the control group at day n.
Data are represented as means ± SD. For antitumor efficiency and mouse weight monitoring, statistical significance was determined using two-way ANOVA. For tumor weight, mitosis number and hematological analyses, statistical significance was determined using one-way ANOVA. Both tests were followed by Tukey's post-hoc multiple comparisons test. Results were considered significant at p < 0.05.

[5] = Side-effect evaluation (mouse weight, hematology, articular cartilage); assay type: in vivo, SCID mice; details: compared to controls; for Mouse weight loss during treatment: 6 i.v. injections at 4-day intervals
Description: To assess side effects, mouse weight was monitored and pathology analyses on healthy articular cartilage and hematological analyses were carried out at 24 hours after the last injection. Approximately 50 μL of blood, obtained by retro-orbital sampling, were analyzed on a Melet Schloesing MS9-5 Hematology Analyzer (n = 5 blood samples per group of treatment) (Diamond diagnostics).
Mouse paws (n = 5 per group of treatment) were fixed in 10% neutral buffer formalin, decalcified with 4.13% EDTA and 0.2% paraformaldehyde in PBS for 96 hours using KOS microwave tissue processor (Milestone), and embedded in paraffin. Then, 4–5-μm thick sections were stained by Toluidine Blue (pH 2.5) to visualize aggrecan or by Masson trichrome to visualize collagen. All images were captured with NanoZoomer (Hamamatsu).

[6] = hypoxia (N2, O2 < 0.3%), 24 hours exposure then 48 hours in normoxia, read-out: IC50 Monolayer Hypoxia
[7] = normoxia (21% O2), 24 hours exposure then 48 hours in normoxia, read-out: IC50 Monolayer Normoxia
[8] = hypoxia (N2, O2 < 0.3%), read-out: IC50 Spheroids Hypoxia
[9] = normoxia (21% O2), read-out: IC50 Spheroids Normoxia

Q: For Cn1c(COP(=O)(NCCC[N+](C)(C)C)N(CCCl)CCCl)cnc1[N+](=O)[O-] (centres unmarked) [8-QA], which “Binding to aggrecan (sensorgrams)” value [1] is on record?
A: dose-dependent binding

Q: And the Kd [1]?
A: 890 µM

Q: What about the IC50 [2, 6] of the same compound?
A: 4.3 ± 1.2 µM

Q: What about the IC50 [2, 7] of the same compound?
A: 29.3 ± 8 µM

Q: What about the “HCR (hypoxic-cytotoxic ratio) Monolayer” value [2] of the same compound?
A: 6.8

Q: And the IC50 [3, 8]?
A: 31.8 ± 5.5 µM

Q: What about the IC50 [3, 9] of the same compound?
A: 101 ± 32.6 µM

Q: And the “S/M (spheroid/monolayer cytotoxic ratio) Hypoxia” value [3]?
A: 7.4

Q: What about the “S/M (spheroid/monolayer cytotoxic ratio) Normoxia” value [3] of the same compound?
A: 3.4

Q: And the “HCR (hypoxic-cytotoxic ratio) Spheroids” value [3]?
A: 3.1

Q: And the “Tumor growth inhibition (TGI) at D41” value ([4]; 47 μmol/kg i.v., q4d x 6, day after last injection (D41))?
A: 62.1%

Q: And the “Antitumor effect (tumor volume vs controls)” value [4]?
A: significant antitumor effect

Q: What about the Tumor weight ([4]; one day after the last injection, normalized to control group) of the same compound?
A: significant decrease

Q: And the “Mouse weight loss during treatment” value [5]?
A: did not cause any weight loss

Q: With C[N+](C)(C)CCCNP(=O)(OCc1ccccc1)N(CCCl)CCCl (centres unmarked) [10-QA] as the compound, how does the “Binding to aggrecan (sensorgrams)” value [1] read?
A: dose-dependent binding

Q: And the Kd [1]?
A: 4100 µM

Q: What about the IC50 ([2]; read-out: IC50 (cytotoxicity in any of the experimental conditions)) of the same compound?
A: > 200 µM

Q: And the IC50 [2, 6]?
A: > 200 µM

Q: And the IC50 [2, 7]?
A: > 200 µM

Q: What about the IC50 [3, 8] of the same compound?
A: > 200 µM

Q: And the IC50 [3, 9]?
A: > 200 µM

Q: What about the “Antitumor effect (tumor volume vs controls)” value [4] of the same compound?
A: no antitumor effect

Q: What about the “Mouse weight loss during treatment” value [5] of the same compound?
A: did not cause any weight loss

Q: With CCCNP(=O)(OCc1cnc([N+](=O)[O-])n1C)N(CCCl)CCCl (centres unmarked) [compound 8] as the compound, how does the “Binding to aggrecan (sensorgrams)” value [1] read?
A: no affinity

Q: What about the IC50 [2, 6] of the same compound?
A: 4.3 ± 1.2 µM

Q: And the IC50 [2, 7]?
A: 32.5 ± 4.3 µM

Q: And the “HCR (hypoxic-cytotoxic ratio) Monolayer” value [2]?
A: 7.5

Q: What about the IC50 [3, 8] of the same compound?
A: 5.7 ± 1.2 µM

Q: And the IC50 [3, 9]?
A: 99.4 ± 5.2 µM

Q: And the “S/M (spheroid/monolayer cytotoxic ratio) Hypoxia” value [3]?
A: 1.3

Q: And the “S/M (spheroid/monolayer cytotoxic ratio) Normoxia” value [3]?
A: 3.1

Q: And the “HCR (hypoxic-cytotoxic ratio) Spheroids” value [3]?
A: 17.4

Q: And the “Antitumor effect (tumor volume vs controls)” value [4]?
A: no antitumor efficacy

Q: And the “Mouse weight loss during treatment” value [5]?
A: did not cause any weight loss

Q: And the “White blood cell count” value ([5]; 24 hours after the last dose)?
A: significant decrease in white blood cell count
